Legend:
[1] = tested on: off-target screening panel; assay: Off-target inhibition screening (whole panel); conditions: 10 μM test concentration, hit = inhibition at or above the 50% level
From the text: In addition to the animal studies presented above in Examples 1-9, the results of in vitro testing of several of the compounds (i.e., XT-203, XT-204, and XT-206 through XT-217) are shown in Table 5 and Table 6. […]. Nine additional compounds had two or fewer off-target hits in the screening. […] These compounds spanned all of the tested N-modification classes. […]. Thus, the medicinal chemistry approach taken in this series of fluorinated compounds can yield low off-target activity and longer metabolic lifetime while preserving TLR4 antagonism. It is appreciated that further development of compounds in this class, using techniques known to those skilled in the art, may yield additional compounds with desirable pharmacologic and toxicologic characteristics.

[2] = tested on: CCI neuropathic pain (mechanical allodynia); assay: Rat chronic constriction injury (CCI) neuropathic pain model, SC dosing, von Frey testing (Example 1); type: in vivo
Method: Pathogen-free adult male Sprague-Dawley rats (300-375 g; Harlan Labs, Madison, Wis.) were used in all experiments. Rats were housed in temperature (23+/−3° C.) and light (12 hour:12 hour, light:dark cycle; lights on at 0700) controlled rooms with standard rodent chow and water available ad libitum.
Chronic Constriction Injury (CCI) model: Neuropathic pain was induced using the CCI model of partial sciatic nerve injury (see, e.g., Bennett and Xie, […]). CCI was performed at the mid-thigh level of the left hindleg as previously described in Milligan, et al., Eur. J. Neuroscience, 20:2294-2302 (2004). In brief, four sterile chromic gut sutures (cuticular 4-0 chromic gut, FS-2; Ethicon, Somerville, N.J., USA) were loosely tied around the gently isolated sciatic nerve. Drug testing was delayed until 10-14 days after surgery to ensure that neuropathic pain was well established prior to the initiation of drug delivery.
XT-203 CCI SC: Rats (10/group) were subjected to CCI neuropathic pain model surgery. After the pain state was established, they were dosed 3× per day for 5 days with XT-203 or a positive control (gabapentin) dose. Behavior testing for pain responses by von Frey testing was used to establish pain thresholds in the affected hind paw. Because dosage was 3×/day, behavior testing was performed after the first and second dose of day 1 dosing (1.1, 1.2) and after the first and second dose of day 5 dosing (5.1, 5.2). […]
Von Frey Test for Mechanical Allodynia: Rats received at least three 60 min habituations to the test environment prior to behavioral testing. Response thresholds to calibrated light pressure stimuli applied to the plantar surface of the paws was measured using the von Frey test. […] Briefly, rats were first assessed for baseline response thresholds (average of three consecutive withdrawal assessments) from each paw at 15 min intervals, and the average response threshold from both feet was calculated. […] Allodynia was assessed pre- and post-drug delivery.

[3] = tested on: CCI neuropathic pain (mechanical allodynia); assay: Rat CCI model, oral and subcutaneous phases (Study R042); type: in vivo
Method: Rat chronic constriction injury model-Oral and subcutaneous (+)-NTX and XT-203: An efficacy study was conducted in the rat chronic constriction injury (CCI) model (Study R042). The study design comprised two phases. A five-day period of oral (PO) dosing and behavioral testing was followed by a five-day period of subcutaneous (SC) dosing, with a two-day washout period between these periods. Dosing on each day was performed three times a day (TID). Behavioral testing for mechanical allodynia was performed on the first and fifth days of dosing, at three times on those days: before the first dose of the day, 30 minutes after the first dose of the day, and 30 minutes after the second dose of the day. Thus, day 5 testing is designated as pre5.1 (before the first dose of the day), 5.1 (fifth day, after first dose) or 5.2 (fifth day, after second dose). On day 5 of the subcutaneous dosing phase, a second testing period was introduced 60 minutes after the second dose. (+)-NTX (6, 18, and 60 mg/kg) and XT-203. Mechanical allodynia was tested manually, using the Chaplan up-down testing method. The results are shown in FIGS. 10A and 10B, with the oral (PO) phase presented as the first pair of graphs. After the two-day washout, the subcutaneous (SC) phase was carried out with the results shown in the graphs at FIGS. 10C and 10D.
The CCI model was well established in this study, with allodynic response thresholds between 2 and 3 grams (presurgical baseline thresholds at 15 g, not shown). […] This is especially remarkable given the extremely rapid metabolism and pharmacokinetics of (+)-NTX (see FIG. 9). Here, the dampening of efficacy due to lack of significant amounts of parent compound is particularly evident. Thus, the appropriate dose-ranging conditions in animal models should reflect (+)-NTX serum levels during efficacy testing, to match pharmacokinetics with pharmacodynamics. […] Efficacy is only observed after the first dose on day 5. Thus, changes designed to improve compound stability do provide improved efficacy.

[4] = tested on: bone fracture pain, paw withdrawal threshold; assay: Mouse bone fracture model, intraperitoneal; type: in vivo; conditions: for effect on PWT in mouse fracture pain model: IP, morphine 1, 2, 3, 5 mg/kg, XT-203 6, 10, 18, 30 mg/kg, (+)-NTX 6, 18, 30, 60 mg/kg, dose-dependent; for adverse effects during observation: mouse fracture model, all dose groups
From the text: Each group had n=10 mice.

[5] = tested on: surgical pain (paw incision), paw withdrawal threshold; assay: Mouse paw incision model, morphine potentiation
Method: Manual testing with von Frey hairs was performed at the times indicated in the graphs. The animals were placed in individual Perspex boxes on a raised metal mesh for at least 40 min before the test. A series of graduated von Frey hairs (0.07, 0.16, 0.4, 0.6, and 1.0 g) were applied to the plantar surface of the left paw, in sequence. Each von Frey hair was applied 10 times on a one-sec-on-one-sec-off protocol, with each hair slightly bent. A paw withdrawal upon this hind-paw stimulation for a given von Frey hair registering 5 responses out of 10 trials was recorded the paw withdrawal threshold (PWT). A baseline PWT was determined each day for 3 days before surgery. […] In addition, the PWT was determined before dosing and 1, 2, and 4 hours after dosing.
In both cases, morphine was dosed at 1 mg/kg IP.

[6] = tested on: bone fracture pain, paw withdrawal threshold; assay: Mouse bone fracture model, morphine potentiation
From the text: Male adult C57BL6 mice, 8-10 weeks old, were anaesthetized with isoflurane mixed with oxygen throughout the surgical procedure. Animals were placed on a thermo-blanket temperature control system. The left knee area was disinfected with povidone/iodine-soaked cotton. A 0.5 cm incision was made on the knee, exposing the front area of the knee. A 27-gauge sterile needle was inserted into the tibial bone medullar canal to secure the fractured bone. The left tibia bone was gently broken using a pair of cushioned pliers. A single dose of antibiotic (Amoxipen 100 mg/kg, IP) was administered for prevention of infection after surgery. The animal was placed in a temperature-controlled recovery chamber until fully awake before being placed in a plastic cage bedded with clean, soft sawdust, with food and water easily accessible. The condition of the animals was closely monitored and recorded. All compounds, dissolved in normal saline, were dosed intraperitoneally in a volume of 5 ml/kg. PWT testing, as described above, was performed at 1, 2, and 4 hours.
In both cases, morphine was dosed at 2 mg/kg IP.

| SMILES | off-target hits in the screening [1] | off-target hits in the screening ([1]; listed as XT-202) | effect on pain threshold (von Frey), data not shown ([2]; SC) | efficacy on mechanical allodynia, medium and high doses ([3]; (+)-NTX 18 and 60 mg/kg TID, PO d1, SC d1, SC d5 panels) | effect on PWT in mouse fracture pain model [4] | adverse effects during observation [4] | PWT of the ipsilateral hind-paw, 2 hours post-dosing ([5]; (+)-NTX 18 mg/kg IP alone) [g] | PWT of the ipsilateral hind-paw, 4 hours post-dosing ([5]; (+)-NTX 18 mg/kg IP alone) [g] | PWT of the ipsilateral hind-paw, 1 hour post-dosing ([5]; (+)-NTX 18 mg/kg IP alone, baseline 0.11±0.015 g) [g] | adverse effects during observation [6] | effect on pain threshold (von Frey), day 1 dosing ([2]; XT-203 19 mg/kg SC 3x per day, FIG. 5A) | effect on pain threshold (von Frey), day 5 testing ([2]; XT-203 19 mg/kg SC 3x per day, FIG. 5B) | reversal of allodynia at pre5.1 (before first dose of day 5) ([3]; XT-203 18 mg/kg SC TID) | efficacy on mechanical allodynia, subcutaneous, day 5 ([3]; XT-203 18 mg/kg SC TID, after the first dose on day 5) | PWT, 2 hours after dosing ([5]; XT-203 10 mg/kg IP alone) [g] | PWT, 4 hours after dosing ([5]; XT-203 10 mg/kg IP alone) [g] | PWT, 1 hour after dosing ([5]; XT-203 10 mg/kg IP alone, 0.11±0.015 g before dosing) [g] |
| --- | --- | --- | --- | --- | --- | --- | --- | --- | --- | --- | --- | --- | --- | --- | --- | --- | --- |
| O=C1CC[C@]2(O)[C@@H]3Cc4ccc(O)c5c4[C@]2(CCN3CC2CC2)[C@@H]1O5 [(+)-naltrexone, reference compound] | none | NONE | not effective | some efficacy | increased the PWT | No significant adverse effects | 0.22 ± 0.050 | 0.14 ± 0.32 | 0.31 ± 0.056 | No significant adverse effects | – | – | – | – | – | – | – |
| COc1ccc2c3c1O[C@@H]1C(F)CCC4[C@H](C2)N(CC2CC2)CC[C@]341 (stereo partly drawn) [XT-203] | activity at two targets | – | – | – | increased the PWT | No significant adverse effects | – | – | – | No significant adverse effects | minimal effect | substantial effect | does not show reversal of allodynia | some significant efficacy | 0.25 ± 0.059 | 0.09 ± 0.012 | 0.32 ± 0.058 |
